Results as given in patent US20080124366A1, “Methods and Compositions for Treating Tumors” (priority 2006, published 2008).
“Also recorded” adds a separate entry of the source.

B1: INF-gamma: interferon-gamma in which cancer stem cells were incubated (protein, UniProt P01579 24-161, looked up)
Interferon gamma: QDPYVKEAENLKKYFNAGHSDVADNGTLFLGILKNWKEESDRKIMQSQIVSFYFKLFKNFKDDQSIQKSVETIKEDMNVKFFNSNKKKRDDFEKLTNYSVTDLNVQRKAIHELIQVMAELSPAAKTGKRKRSQMLFRG

Key:
[1] = test system: cervical lymph node T cells and DCs; assay: Flow cytometry of draining cervical lymph nodes after s.c. vaccination; type: in vivo, C57BL/6 mice; details: vs lysate or normal
Method: Flow cytometry. Normal B6 mice were vaccinated two times, one week apart with CpG/lysate, CpG, lysate, or were not vaccinated as the controls (n=4/group). Six days after the last vaccination, the left and right cervical lymph nodes of each mouse were harvested, counted for LN cell numbers, and analyzed by flow cytometry with various monoclonal antibodies (1 μg/10^6 cells) including FITC-anti-CD3, PE-anti-CD8, APC-anti-CD4, FITC-anti-CD1 1c, PE-anti-CCR7, and APC-anti-CD86 (eBioscience, San Diego, Calif.).
The ability of CpG ODN to activate and mature DCs to elicit T cell-mediated responses has been established. An experiment was conducted to characterize the effects of CpG/lysate vaccination on DCs and T cells in the draining lymph nodes. Normal B6 mice were vaccinated two times, one week apart, by subcutaneous (s.c.) injection with CpG ODN, tumor lysate, or CpG/lysate (n=4/group). Six days after the second vaccination, the draining cervical lymph nodes of each mouse were harvested, counted for total cell number, and analyzed by flow cytometry.

GL261 mouse glioma model = assay: Intratumoral CpG ODN administration in GL261 mouse glioma model; type: in vivo; details: weakly immunogenic GL261 / GL261-Luc model
[2] = test system: intracranial GL261-Luc glioma; assay: s.c. vaccination of mice bearing intracranial GL261-Luc glioma, bioluminescent imaging and survival (Example 5); type: in vivo, C57BL/6 mice; details: s.c. days 4, 11, 18
Method: Glioma model and in vivo imaging. Six to seven week old female C57BL/6 mice were purchased from Jackson Laboratory and maintained in a specific pathogen free (SPF) facility according to the guidelines of the University of Minnesota Animal Care and Use Committee (IACUC). For intracranial tumor inoculations, animals were deeply anesthetized with a ketamine/xylazine cocktail solution (53.7 mg/ml ketamine, 9.26 mg/ml xylazine) delivered at 1 ml/kg. 10,000 GL261-Luc cells in 1 μl of PBS were implanted stereotactically into the right striatum; coordinates were 2.2 mm lateral, and 0.5 mm posterior of bregma, and 3 mm ventral from the cortical surface of the brain. For imaging mice were deeply anesthetized by i.p. injection with avertin (225 mg/kg) and injected with 100 μl of luciferin (substrate for luciferase enzyme; 28.5 mg/ml, Xenogen®, Hopkinton, Mass.). Mice were imaged five minutes after luciferin injection using the Ivis 50 system (Xenogen®). […] Luciferase activity was analyzed using living image software (version 2.5; Xenogen®) according to the manufacturer's instructions. […]
Statistical analysis. […] Differences in animal survival between treatment groups were evaluated by log-rank statistical analysis with Sigmastat software (Systat Software, Inc. San Jose, Calif.); only P values <0.05 were considered significant.

[3] = test system: Human brain tumor stem cells; assay: Incubation of human brain tumor stem cells in INF-gamma; type: cell-based

Molecule | number of activated (CD11c+CD86+/CCR7+) DCs in draining lymph nodes [1] | efficacy of intratumoral administration (GL261 mouse glioma model) | effect on tumor growth or survival [2] | immunogenicity of cancer stem cells after incubation [3]
5′-TCGTCGTTTTGTCGTTTTGTCGTT-3′ [CpG ODN] | significant increase | not effective; also recorded: failed to cause sustained tumor regression | no effect | –
B1 | – | – | – | restores their immunogenecity
